# Data from ChEMBL document CHEMBL2010722, “Structure-activity relationship study of beta-carboline derivatives as haspin kinase inhibitors” (Bioorg Med Chem Lett, 2012).
# Key:
# [1] = target: Protein kinase C beta type (Homo sapiens) (UniProt P05771); test: Inhibition of PKCbeta1 at 10 uM
# [2] = target: Serine/threonine-protein kinase Nek7 (Homo sapiens) (UniProt Q8TDX7); test: Inhibition of NEK7 at 10 uM
# [3] = target: Serine/threonine-protein kinase PLK4 (Homo sapiens) (UniProt O00444); test: Inhibition of PLK4 at 10 uM
# [4] = target: Serine/threonine-protein kinase Chk2 (Homo sapiens) (UniProt O96017); test: Inhibition of CHK2 at 10 uM
# Sequence of Serine/threonine-protein kinase Chk2 (Homo sapiens) (O96017 whole entry): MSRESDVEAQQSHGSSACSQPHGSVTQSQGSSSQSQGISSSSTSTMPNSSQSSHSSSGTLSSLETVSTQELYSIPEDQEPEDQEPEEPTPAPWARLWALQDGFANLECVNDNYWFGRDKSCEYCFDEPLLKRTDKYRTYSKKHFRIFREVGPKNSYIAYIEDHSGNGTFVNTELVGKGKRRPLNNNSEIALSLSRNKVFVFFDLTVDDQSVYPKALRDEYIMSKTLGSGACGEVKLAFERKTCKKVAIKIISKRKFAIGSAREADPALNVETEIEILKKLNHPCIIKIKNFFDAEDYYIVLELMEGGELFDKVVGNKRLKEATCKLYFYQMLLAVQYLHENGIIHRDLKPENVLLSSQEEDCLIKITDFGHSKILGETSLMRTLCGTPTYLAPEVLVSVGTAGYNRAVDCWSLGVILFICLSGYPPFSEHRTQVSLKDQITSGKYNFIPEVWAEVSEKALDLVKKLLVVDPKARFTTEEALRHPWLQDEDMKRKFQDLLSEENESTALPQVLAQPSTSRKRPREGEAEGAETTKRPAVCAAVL
# [5] = target: Myosin light chain kinase 2, skeletal/cardiac muscle (Homo sapiens) (UniProt Q9H1R3); test: Inhibition of skMLCK at 10 uM
# [6] = target: Serine/threonine-protein kinase Nek1 (Homo sapiens) (UniProt Q96PY6); test: Inhibition of NEK1 at 10 uM
# [7] = target: Protein kinase C gamma type (Homo sapiens) (UniProt P05129); test: Inhibition of PKCgamma at 10 uM
# [8] = target: Cytoplasmic tyrosine-protein kinase BMX (Homo sapiens) (UniProt P51813); test: Inhibition of BMX at 10 uM
# [9] = target: Serine/threonine-protein kinase 26 (Homo sapiens) (UniProt Q9P289); test: Inhibition of MST4 at 10 uM
# [10] = target: CDK3/cyclin E (Homo sapiens) (UniProt P24864+O96020+Q00526); test: Inhibition of CDK3-Cyclin E1 at 10 uM; type: protein-complex assay
# [11] = target: Proto-oncogene tyrosine-protein kinase receptor Ret (Homo sapiens) (UniProt P07949); test: Inhibition of RET at 10 uM
# [12] = target: Serine/threonine-protein kinase Nek2 (Homo sapiens) (UniProt P51955); test: Inhibition of NEK2 at 10 uM
# [13] = test system: ALK tyrosine kinase receptor (Homo sapiens), Q9UM73 [F1174L]; test: Inhibition of ALK F1174L mutant at 10 uM
# [14] = target: Mast/stem cell growth factor receptor Kit (Homo sapiens) (UniProt P10721); test: Inhibition of KIT at 10 uM
# [15] = target: Serine/threonine-protein kinase 24 (Homo sapiens) (UniProt Q9Y6E0); test: Inhibition of MST3 at 10 uM
# [16] = target: LIM domain kinase 1 (Homo sapiens) (UniProt P53667); test: Inhibition of LIMK1 at 10 uM
# Sequence of LIM domain kinase 1 (Homo sapiens) (P53667 whole entry, looked up, the tested form may be a part): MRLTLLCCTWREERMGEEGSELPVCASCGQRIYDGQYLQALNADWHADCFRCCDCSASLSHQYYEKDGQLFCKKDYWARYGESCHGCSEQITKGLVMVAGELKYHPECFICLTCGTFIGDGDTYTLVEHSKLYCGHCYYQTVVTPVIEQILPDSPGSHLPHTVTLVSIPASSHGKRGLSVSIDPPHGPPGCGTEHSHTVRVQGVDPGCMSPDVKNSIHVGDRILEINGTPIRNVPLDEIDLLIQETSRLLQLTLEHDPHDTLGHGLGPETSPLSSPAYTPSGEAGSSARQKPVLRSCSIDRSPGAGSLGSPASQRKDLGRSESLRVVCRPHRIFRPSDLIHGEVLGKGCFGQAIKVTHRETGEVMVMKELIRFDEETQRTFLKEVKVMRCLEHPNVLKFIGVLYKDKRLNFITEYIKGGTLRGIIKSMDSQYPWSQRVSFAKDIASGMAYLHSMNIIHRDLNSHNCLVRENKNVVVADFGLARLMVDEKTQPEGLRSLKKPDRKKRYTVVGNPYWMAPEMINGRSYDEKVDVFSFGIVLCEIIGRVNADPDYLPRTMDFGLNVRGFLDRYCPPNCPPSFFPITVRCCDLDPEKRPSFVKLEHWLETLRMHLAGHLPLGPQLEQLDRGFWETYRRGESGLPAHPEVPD
# [17] = target: Vascular endothelial growth factor receptor 2 (Homo sapiens) (UniProt P35968); test: Inhibition of KDR at 10 uM
# [18] = target: Protein kinase C eta type (Homo sapiens) (UniProt P24723); test: Inhibition of PKCh at 10 uM
# [19] = test system: Mast/stem cell growth factor receptor Kit (Homo sapiens), P10721 [V560G]; test: Inhibition of KIT V560G mutant at 10 uM
# [20] = target: RAC-beta serine/threonine-protein kinase (Homo sapiens) (UniProt P31751); test: Inhibition of AKT2 at 10 uM
# [21] = target: RAF proto-oncogene serine/threonine-protein kinase (Homo sapiens) (UniProt P04049); test: Inhibition of RAF1 at 10 uM
# [22] = target: Serine/threonine-protein kinase Sgk2 (Homo sapiens) (UniProt Q9HBY8); test: Inhibition of SGK2 at 10 uM
# [23] = target: Ephrin type-A receptor 8 (Homo sapiens) (UniProt P29322); test: Inhibition of EPHA8 at 10 uM
# [24] = target: Tyrosine-protein kinase Tec (Homo sapiens) (UniProt P42680); test: Inhibition of TEC at 10 uM
# [25] = target: Serine/threonine-protein kinase D3 (Homo sapiens) (UniProt O94806); test: Inhibition of PKD3 at 10 uM
# [26] = target: Mitogen-activated protein kinase 8 (Homo sapiens) (UniProt P45983); test: Inhibition of JNK1 at 10 uM
# [27] = target: Ribosomal protein S6 kinase alpha-2 (Homo sapiens) (UniProt Q15349); test: Inhibition of RSK3 N-terminal at 10 uM
# [28] = target: cAMP-dependent protein kinase catalytic subunit alpha (Homo sapiens) (UniProt P17612); test: Inhibition of PKACa at 10 uM
# [29] = target: Serine/threonine-protein kinase PAK 4 (Homo sapiens) (UniProt O96013); test: Inhibition of PAK4 at 10 uM
# Liver = test: Half life in mouse liver microsome at 3 uM; type: ADME; conditions: microsomes
# [30] = target: PAS domain-containing serine/threonine-protein kinase (Homo sapiens) (UniProt Q96RG2); test: Inhibition of PASK at 10 uM
# [31] = target: Mitogen-activated protein kinase kinase kinase kinase 2 (Homo sapiens) (UniProt Q12851); test: Inhibition of MAP4K2 at 10 uM
# [32] = target: Tyrosine-protein kinase HCK (Homo sapiens) (UniProt P08631); test: Inhibition of HCK at 10 uM
# [33] = target: Serine/threonine-protein kinase 3 (Homo sapiens) (UniProt Q13188); test: Inhibition of MST2 at 10 uM
# [34] = target: RAC-alpha serine/threonine-protein kinase (Homo sapiens) (UniProt P31749); test: Inhibition of AKT1 at 10 uM
# [35] = target: Tyrosine-protein kinase ITK/TSK (Homo sapiens) (UniProt Q08881); test: Inhibition of ITK at 10 uM
# [36] = target: ALK tyrosine kinase receptor (Homo sapiens) (UniProt Q9UM73); test: Inhibition of ALK at 10 uM
# Sequence of ALK tyrosine kinase receptor (Homo sapiens) (Q9UM73 19-1620 limits assumed): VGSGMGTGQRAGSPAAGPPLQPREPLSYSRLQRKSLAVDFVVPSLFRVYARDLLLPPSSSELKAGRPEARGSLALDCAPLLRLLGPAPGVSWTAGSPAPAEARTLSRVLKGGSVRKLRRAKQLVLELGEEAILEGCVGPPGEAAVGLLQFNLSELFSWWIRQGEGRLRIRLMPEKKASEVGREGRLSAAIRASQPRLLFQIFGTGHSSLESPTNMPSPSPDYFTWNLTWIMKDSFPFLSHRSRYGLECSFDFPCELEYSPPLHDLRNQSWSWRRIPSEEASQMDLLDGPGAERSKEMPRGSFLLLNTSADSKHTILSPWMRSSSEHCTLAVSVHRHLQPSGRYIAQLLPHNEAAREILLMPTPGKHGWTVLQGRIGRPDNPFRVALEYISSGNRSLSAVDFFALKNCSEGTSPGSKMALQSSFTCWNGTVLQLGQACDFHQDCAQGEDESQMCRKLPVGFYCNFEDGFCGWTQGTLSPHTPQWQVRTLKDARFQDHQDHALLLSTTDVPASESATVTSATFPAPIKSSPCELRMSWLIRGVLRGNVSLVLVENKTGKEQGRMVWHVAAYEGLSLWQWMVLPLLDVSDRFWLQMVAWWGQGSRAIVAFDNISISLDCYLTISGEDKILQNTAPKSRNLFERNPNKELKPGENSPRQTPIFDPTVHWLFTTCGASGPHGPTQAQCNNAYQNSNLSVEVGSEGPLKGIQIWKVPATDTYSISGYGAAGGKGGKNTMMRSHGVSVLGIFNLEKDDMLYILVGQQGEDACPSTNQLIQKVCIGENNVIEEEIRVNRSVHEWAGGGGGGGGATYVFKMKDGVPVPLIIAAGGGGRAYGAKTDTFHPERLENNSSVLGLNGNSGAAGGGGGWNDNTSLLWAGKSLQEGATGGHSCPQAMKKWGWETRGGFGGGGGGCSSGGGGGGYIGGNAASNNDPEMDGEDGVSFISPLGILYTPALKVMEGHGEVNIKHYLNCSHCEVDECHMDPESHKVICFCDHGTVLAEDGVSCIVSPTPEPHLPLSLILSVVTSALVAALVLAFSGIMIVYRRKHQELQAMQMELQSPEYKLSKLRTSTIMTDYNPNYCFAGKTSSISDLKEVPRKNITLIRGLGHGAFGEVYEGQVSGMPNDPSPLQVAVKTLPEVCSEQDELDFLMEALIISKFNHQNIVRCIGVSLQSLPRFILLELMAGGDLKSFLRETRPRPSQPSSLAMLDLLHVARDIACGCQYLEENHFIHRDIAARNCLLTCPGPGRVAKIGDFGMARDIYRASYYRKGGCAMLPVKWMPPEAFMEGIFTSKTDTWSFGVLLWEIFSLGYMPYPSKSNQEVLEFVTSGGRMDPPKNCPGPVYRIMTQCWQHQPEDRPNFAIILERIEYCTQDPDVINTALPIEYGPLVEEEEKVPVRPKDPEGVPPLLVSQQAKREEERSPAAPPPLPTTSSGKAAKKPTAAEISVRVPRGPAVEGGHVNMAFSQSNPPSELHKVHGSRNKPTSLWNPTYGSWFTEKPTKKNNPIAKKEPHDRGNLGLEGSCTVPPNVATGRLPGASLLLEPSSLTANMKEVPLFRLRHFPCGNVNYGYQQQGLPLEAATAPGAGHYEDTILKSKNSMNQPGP
# [37] = target: Serine/threonine-protein kinase TAO2 (Homo sapiens) (UniProt Q9UL54); test: Inhibition of TAOK2 at 10 uM
# [38] = target: Dual specificity mitogen-activated protein kinase kinase 4 (Homo sapiens) (UniProt P45985); test: Inhibition of MAP2K4 at 10 uM
# [39] = target: Serine/threonine-protein kinase pim-2 (Homo sapiens) (UniProt Q9P1W9); test: Inhibition of PIM2 at 10 uM
# Sequence of Serine/threonine-protein kinase pim-2 (Homo sapiens) (Q9P1W9 whole entry, looked up): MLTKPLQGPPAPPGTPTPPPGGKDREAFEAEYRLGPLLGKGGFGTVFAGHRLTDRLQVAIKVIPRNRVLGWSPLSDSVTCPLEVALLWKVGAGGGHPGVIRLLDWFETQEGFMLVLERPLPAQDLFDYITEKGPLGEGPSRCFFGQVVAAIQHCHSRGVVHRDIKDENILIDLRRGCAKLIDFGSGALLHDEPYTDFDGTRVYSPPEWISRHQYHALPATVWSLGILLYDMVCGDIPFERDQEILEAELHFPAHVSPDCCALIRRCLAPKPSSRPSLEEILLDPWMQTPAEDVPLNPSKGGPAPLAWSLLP
# [40] = target: Serine/threonine-protein kinase B-raf (Homo sapiens) (UniProt P15056); test: Inhibition of BRAF at 10 uM
# [41] = test system: ALK tyrosine kinase receptor (Homo sapiens), Q9UM73 [R1275Q]; test: Inhibition of ALK R1275Q mutant at 10 uM
# [42] = target: Death-associated protein kinase 1 (Homo sapiens) (UniProt P53355); test: Inhibition of DAPK1 at 10 uM
# [43] = target: Serine/threonine-protein kinase pim-3 (Homo sapiens) (UniProt Q86V86); test: Inhibition of PIM3 at 10 uM
# [44] = target: Homeodomain-interacting protein kinase 2 (Homo sapiens) (UniProt Q9H2X6); test: Inhibition of HIPK2 at 10 uM
# [45] = target: Dual specificity mitogen-activated protein kinase kinase 2 (Homo sapiens) (UniProt P36507); test: Inhibition of MAP2K2 at 10 uM
# [46] = target: Mitogen-activated protein kinase kinase kinase kinase 4 (Homo sapiens) (UniProt O95819); test: Inhibition of HGK at 10 uM
# Sequence of Mitogen-activated protein kinase kinase kinase kinase 4 (Homo sapiens) (O95819 2-1239 limits assumed): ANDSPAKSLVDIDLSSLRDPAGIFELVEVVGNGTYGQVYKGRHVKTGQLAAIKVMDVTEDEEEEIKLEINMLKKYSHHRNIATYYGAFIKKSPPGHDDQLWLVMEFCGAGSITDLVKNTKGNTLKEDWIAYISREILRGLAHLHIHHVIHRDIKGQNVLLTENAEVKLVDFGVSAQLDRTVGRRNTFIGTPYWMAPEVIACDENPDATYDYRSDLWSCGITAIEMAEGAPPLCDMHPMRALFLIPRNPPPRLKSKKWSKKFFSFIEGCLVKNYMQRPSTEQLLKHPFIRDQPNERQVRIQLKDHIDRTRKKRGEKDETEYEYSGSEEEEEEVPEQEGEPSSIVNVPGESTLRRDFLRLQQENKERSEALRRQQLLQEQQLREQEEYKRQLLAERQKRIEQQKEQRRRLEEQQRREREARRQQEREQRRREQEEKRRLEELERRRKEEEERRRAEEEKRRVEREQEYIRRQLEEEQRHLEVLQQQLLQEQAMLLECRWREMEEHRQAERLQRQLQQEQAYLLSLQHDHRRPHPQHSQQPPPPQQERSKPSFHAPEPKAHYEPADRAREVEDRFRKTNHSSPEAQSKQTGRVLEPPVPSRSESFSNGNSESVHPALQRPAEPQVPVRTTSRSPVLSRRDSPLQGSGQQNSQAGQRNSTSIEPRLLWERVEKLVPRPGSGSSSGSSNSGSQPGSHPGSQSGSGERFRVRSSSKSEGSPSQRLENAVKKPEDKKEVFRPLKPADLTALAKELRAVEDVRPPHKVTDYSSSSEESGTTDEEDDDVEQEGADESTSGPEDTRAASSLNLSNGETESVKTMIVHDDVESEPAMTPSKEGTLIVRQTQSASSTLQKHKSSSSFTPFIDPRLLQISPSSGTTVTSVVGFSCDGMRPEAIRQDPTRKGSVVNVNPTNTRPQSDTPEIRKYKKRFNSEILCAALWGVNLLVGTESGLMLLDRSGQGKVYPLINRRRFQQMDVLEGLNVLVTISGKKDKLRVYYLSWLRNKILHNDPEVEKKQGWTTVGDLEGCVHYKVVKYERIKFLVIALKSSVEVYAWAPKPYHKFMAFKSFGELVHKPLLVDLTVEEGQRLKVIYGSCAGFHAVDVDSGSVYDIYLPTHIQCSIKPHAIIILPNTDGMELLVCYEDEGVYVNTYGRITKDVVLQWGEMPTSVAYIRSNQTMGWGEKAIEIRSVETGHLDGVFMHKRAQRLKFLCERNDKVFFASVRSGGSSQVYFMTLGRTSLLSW
structure (smiles),measurement,setting,value
COc1ccc2c3ccnc(C(F)(F)F)c3n(CCCCN)c2c1,inhibition,[1],35%
same,inhibition,[2],0%
same,inhibition,[3],22%
same,inhibition,[4],27%
same,inhibition,[5],34%
same,inhibition,[6],5%
same,inhibition,[7],22%
same,inhibition,[8],3%
same,inhibition,[9],0%
same,inhibition,[10],22%
same,inhibition,[11],11%
same,inhibition,[12],1%
same,inhibition,[13],9%
same,inhibition,[14],10%
same,inhibition,[15],9%
same,inhibition,[16],8%
same,inhibition,[17],2%
same,inhibition,[18],77%
same,inhibition,[19],16%
same,inhibition,[20],4%
same,inhibition,[21],0%
same,inhibition,[22],20%
same,inhibition,[23],0%
same,inhibition,[24],2%
same,inhibition,[25],92%
same,inhibition,[26],44%
same,inhibition,[27],36%
same,inhibition,[28],28%
same,inhibition,[29],13%
same,t1/2,Liver,5.68 h
same,inhibition,[30],92%
same,inhibition,[31],75%
same,inhibition,[32],1%
same,inhibition,[33],3%
same,inhibition,[34],23%
same,inhibition,[35],7%
same,inhibition,[36],5%
same,inhibition,[37],4%
same,inhibition,[38],10%
same,inhibition,[39],64%
same,inhibition,[40],0%
same,inhibition,[41],6%
same,inhibition,[42],41%
same,inhibition,[43],89%
same,inhibition,[44],53%
same,inhibition,[45],6%
same,inhibition,[46],62%
